Measurements from publication PMC4234442 (Journal of Medicinal Chemistry, 2014).
Structures can show the parent of a compound that is named as a salt. Marks after values point to notes of the source that are not given here. Each block holds one compound with its values, some of them ahead of it. Ends that are not written are not given here.

Tests used:
NPFF1-R [1] = molecular target: T1, NPFF1-R (Homo sapiens, UniProt Q9GZQ6); assay: [35S]GTPγS binding assay, membranes of NPFF1-R expressing CHO cells; format: biochemical; conditions: tested at 10 μM; % maximal activation
T1 sequence (Q9GZQ6 whole entry): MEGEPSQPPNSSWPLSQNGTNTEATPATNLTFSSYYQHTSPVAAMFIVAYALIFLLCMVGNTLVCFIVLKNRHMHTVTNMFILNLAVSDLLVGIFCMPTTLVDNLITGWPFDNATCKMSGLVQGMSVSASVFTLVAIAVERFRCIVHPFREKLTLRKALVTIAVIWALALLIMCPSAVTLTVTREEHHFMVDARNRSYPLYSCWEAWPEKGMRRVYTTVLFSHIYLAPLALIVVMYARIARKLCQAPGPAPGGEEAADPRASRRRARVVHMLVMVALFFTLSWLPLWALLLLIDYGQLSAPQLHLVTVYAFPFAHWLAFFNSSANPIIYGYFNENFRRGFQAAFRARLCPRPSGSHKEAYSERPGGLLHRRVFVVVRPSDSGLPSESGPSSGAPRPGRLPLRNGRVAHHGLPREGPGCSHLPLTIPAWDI

NPFF2-R [2] = molecular target: T2, NPFF2-R (Homo sapiens, UniProt Q9Y5X5); assay: [35S]GTPγS binding assay, membranes of NPFF2-R expressing CHO cells; format: biochemical; conditions: tested at 10 μM; % maximal activation
T2 sequence (Q9Y5X5 whole entry): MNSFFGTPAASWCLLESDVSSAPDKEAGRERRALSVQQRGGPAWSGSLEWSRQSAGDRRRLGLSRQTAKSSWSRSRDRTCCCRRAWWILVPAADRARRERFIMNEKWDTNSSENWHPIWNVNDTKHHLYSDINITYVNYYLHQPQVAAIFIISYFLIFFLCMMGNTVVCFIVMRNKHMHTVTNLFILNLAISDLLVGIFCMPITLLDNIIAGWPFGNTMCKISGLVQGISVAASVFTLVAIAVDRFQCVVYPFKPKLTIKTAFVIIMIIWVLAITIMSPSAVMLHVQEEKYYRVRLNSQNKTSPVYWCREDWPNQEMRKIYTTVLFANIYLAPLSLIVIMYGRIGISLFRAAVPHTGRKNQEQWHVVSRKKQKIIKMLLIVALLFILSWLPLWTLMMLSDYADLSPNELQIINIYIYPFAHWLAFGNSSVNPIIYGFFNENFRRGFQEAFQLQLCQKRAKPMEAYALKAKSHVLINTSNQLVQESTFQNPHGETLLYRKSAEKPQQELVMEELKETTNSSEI

NPFF1-R [3] = molecular target: T1, NPFF1-R; format: cell-based
NPFF1-R [4] = molecular target: T1, NPFF1-R; format: binding
NPFF2-R [5] = molecular target: T2, NPFF2-R; format: binding
NPFF2-R [6] = molecular target: T2, NPFF2-R; format: cell-based
NPFF2-R [7] = molecular target: T2, NPFF2-R; format: binding; remark: listed apart in the source
NPFF2-R [8] = molecular target: T2, NPFF2-R; conditions: cited from earlier work; for selectivity for the hNPFF2 subtype: radioligand competition binding assays
[9] = molecular target: membrane of rat spinal cord; conditions: read-out: Ki in the membrane of rat spinal cord; cited from earlier work
NPFF1-R [10] = molecular target: T1, NPFF1-R; conditions: read-out: hNPFF1-R Ki; radioligand displacement assays; cited from earlier work
NPFF1-R [11] = molecular target: T1, NPFF1-R; conditions: read-out: cAMP hNPFF1-R antagonist activity EC50; data taken from ref 15; cited from earlier work

% stimulation (increase) of [35S]GTPγS binding at NPFF1-R (NPFF1-R [1]): 36 ^d %
% stimulation (increase) of [35S]GTPγS binding at NPFF2-R (NPFF2-R [2]): 184 ^d %
Compound: N=C(N)NCCC[C@H](N)C(=O)NCC1(Nc2ccccc2)CCN(Cc2ccccc2)CC1 [7b, 2-Amino-N-((1-benzyl-4-(phenylamino)piperidin-4-yl)methyl)-5-guanidinopentanamide Hydrochloride]

Compound: N=C(N)NCC(=O)NCC1(Nc2cccc3ccccc23)CCN(Cc2ccccc2)CC1 [30a, N-((1-Benzyl-4-(naphthalen-1-ylamino)piperidin-4-yl)methyl)-2-guanidinoacetamide Tritriflate]
Highest concentration showing no agonist activity when tested alone, hNPFF1-R (NPFF1-R [3]): >10K ^f
ratio, preference for NPFF1 (NPFF1-R [4]): 3.3-fold (NPFF1)

Compound: COc1cc(NC2(CNC(=O)CNC(=N)N)CCN(Cc3ccccc3)CC2)cc(OC)c1 [30b, N-((1-Benzyl-4-(3,5-dimethoxyphenylamino)piperidin-4-yl)methyl)-2-guanidinoacetamide Tritriflate]
Highest concentration showing no agonist activity when tested alone, hNPFF1-R (NPFF1-R [3]): >10K ^f
ratio, preference for NPFF1 (NPFF1-R [4]): 8.7-fold (NPFF1)

Compound: COc1cccc(NC2(CNC(=O)CNC(=N)N)CCN(Cc3ccccc3)CC2)c1 [30c, N-((1-Benzyl-4-(3-methoxyphenylamino)piperidin-4-yl)methyl)-2-guanidinoacetamide Tritriflate]
ratio, preference for NPFF1 (NPFF1-R [4]): 4.4-fold (NPFF1)

Compound: N=C(N)NCC(=O)NCC1(Nc2ccc(Cl)c(Cl)c2)CCN(Cc2ccccc2)CC1 [30d, N-((1-Benzyl-4-(3,4-dichlorophenylamino)piperidin-4-yl)methyl)-2-guanidinoacetamide Tritriflate]
ratio, preference for NPFF1 (NPFF1-R [4]): 2.1-fold (NPFF1)

Compound: N=C(N)NCC(=O)NCC1(Nc2ccccc2)CCN(CC2CCCCC2)CC1 [49b, N-((1-(Cyclohexylmethyl)-4-(phenylamino)piperidin-4-yl)methyl)-2-guanidinoacetamide Tritriflate]
fold loss of affinity at NPFF1-R relative to lead 21 (NPFF1-R [4]): 5 fold
fold gain of affinity at NPFF2-R compared with lead 21 (NPFF2-R [5]): 1.2–3.1 fold

Compound: N=C(N)NCC(=O)NCC1(Nc2ccccc2)CCN(CCc2ccccc2)CC1 [49c, 2-Guanidino-N-((1-phenethyl-4-(phenylamino)piperidin-4-yl)methyl)acetamide Tritriflate]
fold gain of affinity at NPFF2-R compared with lead 21 (NPFF2-R [5]): 1.2–3.1 fold

Compound: N=C(N)NCC(=O)NCC1(Nc2ccccc2)CCN(Cc2cccc3ccccc23)CC1 [49d, 2-Guanidino-N-((1-(naphthalen-1-ylmethyl)-4-(phenylamino)piperidin-4-yl)methyl)acetamide Tritriflate]
fold gain of affinity at NPFF2-R compared with lead 21 (NPFF2-R [5]): 1.2–3.1 fold

Compound: N=C(N)NCC(=O)NCC1(Nc2ccccc2)CCN(Cc2ccc3ccccc3c2)CC1 [49e, 2-Guanidino-N-((1-(naphthalen-2-ylmethyl)-4-(phenylamino)piperidin-4-yl)methyl)acetamide Tritriflate]
fold gain of affinity at NPFF1-R compared with lead 21 (NPFF1-R [4]): 2.3–2.8 fold

Compound: N=C(N)NCC(=O)NCC1(Nc2ccccc2)CCN(Cc2ccc(Br)cc2)CC1 [49f, N-((1-(4-Bromobenzyl)-4-(phenylamino)piperidin-4-yl)methyl)-2-guanidinoacetamide Tritriflate]
fold gain of affinity at NPFF1-R compared with lead 21 (NPFF1-R [4]): 2.3–2.8 fold

Activity alone at NPFF2-R (NPFF2-R [6]): low activity
Activity alone at NPFF1-R (NPFF1-R [3]): low activity
fold gain of affinity at NPFF2-R compared with lead 21 (NPFF2-R [5]): 14 fold
fold increase in affinity at NPFF2-R relative to lead 42 (NPFF2-R [5]): 2.8 fold
Compound: N=C(N)NCC(=O)NCC1(Cc2cccc3ccccc23)CCN(Cc2ccccc2)CC1 [53a, N-((1-Benzyl-4-(naphthalen-1-ylmethyl)piperidin-4-yl)methyl)-2-guanidinoacetamide Tritriflate]

fold loss of affinity at NPFF2-R relative to 53a (NPFF2-R [5]): 2.7 fold
Compound: N=C(N)NCC(=O)NCC1(Cc2ccc(Cl)c(Cl)c2)CCN(Cc2ccccc2)CC1 [53b, N-((1-Benzyl-4-(3,4-dichlorobenzyl)piperidin-4-yl)methyl)-2-guanidinoacetamide Ditriflate]

fold loss of affinity at NPFF2-R relative to 53a (NPFF2-R [5]): 6.8 fold
ratio, preference for NPFF2 (NPFF2-R [5]): 1.5-fold (NPFF2)
Compound: N=C(N)NCC(=O)NCC1(Cc2ccc3ccccc3c2)CCN(Cc2ccccc2)CC1 [53c, N-((1-Benzyl-4-(naphthalen-2-ylmethyl)piperidin-4-yl)methyl)-2-guanidinoacetamide Ditriflate]

ratio, preference for NPFF1 (NPFF1-R [4]): 3-fold (NPFF1)
fold loss of affinity at NPFF2-R relative to 53a (NPFF2-R [5]): 30 fold
Compound: N=C(N)NCC(=O)NCC1(Cc2ccc(-c3ccccc3)cc2)CCN(Cc2ccccc2)CC1 [53d, N-((1-Benzyl-4-(biphenyl-4-ylmethyl)piperidin-4-yl)methyl)-2-guanidinoacetamide Ditriflate]

fold loss of affinity at NPFF2-R relative to 7b (NPFF2-R [7]): 7 fold
Compound: N=C(N)NCCC[C@H](N)C(=O)NCC1CCN(Cc2ccccc2)CC1 [compound 15, 2-Amino-N-((1-benzylpiperidin-4-yl)methyl)-5-guanidinopentanamide Hydrochloride]

Compound: N=C(N)NCC(=O)NCC1(Nc2ccccc2)CCN(Cc2ccccc2)CC1 [compound 21, N-((1-Benzyl-4-(phenylamino)piperidin-4-yl)methyl)-2-guanidinoacetamide tritriflate]
% inhibition of forskolin-stimulated cAMP accumulation (cyclase) at NPFF2-R (NPFF2-R [6]): 20–25 ^e %
Agonist activity alone at NPFF2-R (NPFF2-R [6]): weak partial agonist activity
Agonist activity alone at NPFF1-R (NPFF1-R [3]): weak partial agonist activity
fold increase in affinity at NPFF1-R compared with lead 7b (NPFF1-R [4]): 1.5 fold
fold increase in affinity at NPFF2-R compared with lead 7b (NPFF2-R [5]): 2.6 fold

fold loss of affinity at NPFF1-R relative to lead 21 (NPFF1-R [4]): 1.6 fold
ratio, preference for NPFF1 (NPFF1-R [4]): 6.9-fold (NPFF1)
fold loss of affinity at NPFF2-R relative to lead 21 (NPFF2-R [5]): 8.7 fold
Compound: N=C(N)NCC(=O)NCC1(c2ccccc2)CCN(Cc2ccccc2)CC1 [compound 34, N-((1-Benzyl-4-phenylpiperidin-4-yl)methyl)-2-guanidinoacetamide Ditriflate]

Highest concentration showing no agonist activity when tested alone, hNPFF2-R (NPFF2-R [6]): 1K ^f
fold gain of affinity at NPFF2-R compared with lead 21 (NPFF2-R [5]): 5 fold
Compound: N=C(N)NCC(=O)NCC1(Cc2ccccc2)CCN(Cc2ccccc2)CC1 [compound 42, N-((1,4-Dibenzylpiperidin-4-yl)methyl)-2-guanidinoacetamide Ditriflate]

ratio, preference for NPFF1 (NPFF1-R [4]): 3-fold (NPFF1)
fold loss of affinity at NPFF2-R relative to 42 (NPFF2-R [5]): 5.5 fold
Compound: N=C(N)NCC(=O)NCC1(CCc2ccccc2)CCN(Cc2ccccc2)CC1 [compound 43, N-((1-Benzyl-4-phenethylpiperidin-4-yl)methyl)-2-guanidinoacetamide Ditriflate]

Compound: N=C(N)NCCNC(=O)C1(Nc2ccccc2)CCN(Cc2ccccc2)CC1 [compound 46, 1-Benzyl-N-(2-guanidinoethyl)-4-(phenylamino)piperidine-4-carboxamide Tritriflate]
fold gain of affinity at NPFF1-R compared with lead 21 (NPFF1-R [4]): 4 fold

Compound: AGEGLSSPFWSLAAPQRFa [hNPAF]
selectivity for the hNPFF2 subtype (NPFF2-R [8]): 10.1 fold

Compound: FLFQPQRFa [NPFF]
Ki [9]: 0.21 nM

Compound: SLNFEELKDWGPKNVIKMSTPAVNKMPHSFANLPLRFa [hNPSF]
selectivity for the hNPFF2 subtype (NPFF2-R [8]): 1.2 fold

Compound: SQAFLFQPQRFa (SQAFLFQPQRF-NH2; UniProt O15130 66-76, looked up) [hNPFF]
selectivity for the hNPFF2 subtype (NPFF2-R [8]): 10.7 fold

Compound: n-adamantanecarbonyl-Arg-Phe-NH2 [RF9]
Ki (NPFF1-R [10]): 58 ± 5 nM
cAMP hNPFF1-R Emax, % (NPFF1-R [3]): 79 ± 5 ^c %
EC50 (NPFF1-R [11]): 4700 ± 1200 nM
Ki (NPFF2-R [8]; read-out: hNPFF2-R Ki, radioligand displacement assays): 75 ± 9 nM
